{"source": "patent US10662164B2", "about": "“Non-beta lactam antibiotics” (University of Notre Dame du Lac, priority 2014, dated 2020)", "key": {"S. aureus ATCC 277660": {"tested_on": "S. aureus ATCC 277660", "assay": "Minimal-bactericidal concentration (MBC) determination", "assay_type": "cell-based, Staphylococcus aureus", "experimental": "(§1) The MBC of compound 75b was determined using S. aureus ATCC 29213, S. aureus […], and E. faecium NCTC 7171.\n(§2) The MBC of indolyl antibiotic 75b was determined by incubation of 1.5×10^5 cells of S. aureus ATCC29213, S. aureus ATCC 27660, and E. faecium NCTC7171 at MIC, 2×MIC, and 4×MIC. Aliquots of 10 μL (corresponding to 1.5×10^4 cells) were plated on agar plates, incubated for 48 h, and colonies were counted in the presence and absence of […]."}, "S. aureus ATCC 29213": {"tested_on": "S. aureus ATCC 29213", "assay": "Minimal-bactericidal concentration (MBC) determination", "assay_type": "cell-based, Staphylococcus aureus", "settings": "MSSA strain", "experimental": "as §1, §2"}, "E. faecium NCTC 7171": {"tested_on": "E. faecium NCTC 7171", "assay": "Minimal-bactericidal concentration (MBC) determination", "assay_type": "cell-based, Enterococcus faecium", "experimental": "as §1, §2"}, "Full PK study [1]": {"assay": "Full PK study", "assay_type": "in vivo, mouse", "experimental": "A full PK study was conducted with indole 75b after iv and oral (po) administration. This compound had the lowest in vitro toxicity and the highest efficacy in the mouse peritonitis infection model.\nFemale ICR mice (6-8 weeks old, ˜20-g body weight) were used for the PK and peritonitis studies. Animals were purchased from Harlan Laboratories, Inc. (Indianapolis, Ind., USA) and given Teklad 2019 Extruded Rodent Diet and water ad libitum. Mice were maintained in polycarbonate shoebox cages with ¼″ corncob (The Andersons Inc., Maumee, Ohio) and Alpha-dri (Sheperd Specialty Papers, Inc., Richland, Mich.) bedding under 12-h light/12-h dark cycle at 72±2° F.\nAntibiotic 75b was dissolved in 10% DMSO/25% Tween-80/65% water at a concentration of 5 mg/mL. Mice (n=3 per time point per route of administration) were administered 100 μL of 75b (equivalent to 20 mg/kg) iv. A separate group of mice was given 100 μL of 75b (equivalent to 20 mg/kg) orally (po). Terminal blood was collected in heparin by cardiac puncture at 2, 5, 10, 20, and 40 min, and at 1, 2, 3, 4, 8, and 24 h after iv administration and at 0.5, 1, 2, 3, 4, 6, 9, 24, and 36 h after po administration. Blood was centrifuged at 1200 g for 10 min to obtain plasma. Plasma samples were stored at −80° C. until analysis.\nPlasma ([…], aliquot) was mixed with 100 μL of acetonitrile containing internal standard (final concentration 8 μg/mL). After centrifugation at 10000 g for 10 min, the supernatant was analyzed by ultraperformance liquid chromatography (UPLC) with UV detection at 285 nm. A Waters Acquity UPLC System (Waters Corporation, Milford, Mass., USA), consisting of a binary pump, an autosampler, a column heater, and a photodiode array detector was used. An Acquity UPLC C18 1.7 μm, 2.1 mm i.d.×50 mm column was used. Elution was at 0.5 mL/min with 70% A/30% B for 2 min, followed by a 10-min linear gradient to 10% A/90% B, then 70% A/30% B for 2 min, where A=0.1% formic acid/water and B=0.1% formic acid/acetonitrile. Monitoring was by UV detection at 285 nm. Calibration curves for each compound were prepared in control plasma containing internal standard. The concentrations in the PK samples were obtained using peak area ratio to the internal standard and the calibration curve regression analysis parameters. The methods were linear from 0.01 to 100 μg/mL; coefficients of determination R^2 range from 0.98 to 0.99.\nThe area under the curve (AUC), clearance (CL), volume of distribution (Vd), and terminal half-life were calculated using Phoenix WinNonlin 6.3 (Certara LP, St Louis, Mo., USA) noncompartmental analysis using uniform weighing. Half-lives were estimated from the linear portion of the initial or terminal phase of the concentration-time data by linear regression, where the slope of the line was the rate constant k and t1/2=ln 2/k."}, "Full PK study [2]": {"assay": "Full PK study", "assay_type": "in vivo, mouse", "settings": "compound 1, oral; dose not given"}}}
{"smiles": "FC(F)(F)c1ccc(Oc2ccc(-c3noc(-c4ccc5[nH]ccc5c4)n3)cc2)cc1", "note": "[Compound 75b, 5-(1H-Indol-5-yl)-3-(4-(4-(trifluoromethyl)phenoxy)phenyl)-1,2,4-oxadiazole]", "values": [{"measurement": "MBC, fold above the MIC", "setting": "S. aureus ATCC 277660", "result": 2, "unit": "fold"}, {"measurement": "MBC relative to MIC", "setting": "S. aureus ATCC 29213", "result": "the same as the MIC value"}, {"measurement": "MBC, fold above the MIC", "setting": "E. faecium NCTC 7171", "result": 2, "unit": "fold"}, {"measurement": "AUC0-24 h", "setting": "Full PK study [1]; 20 mg/kg iv, mice", "result": 3140, "unit": "µg·min/mL"}, {"measurement": "AUC0-∞", "setting": "Full PK study [1]; 20 mg/kg iv, mice", "result": 3520, "unit": "µg·min/mL"}, {"measurement": "CL", "setting": "Full PK study [1]; 20 mg/kg iv, mice", "result": 5.68, "unit": "mL/min/kg"}, {"measurement": "Vd", "setting": "Full PK study [1]; 20 mg/kg iv, mice", "result": 4.73, "unit": "L/kg"}, {"measurement": "t1/2α", "setting": "Full PK study [1]; 20 mg/kg iv, mice", "result": "t1/2α = 0.54 min"}, {"measurement": "t1/2β (terminal half-life)", "setting": "Full PK study [1]; 20 mg/kg iv, mice", "result": 9.6, "unit": "h"}, {"measurement": "F (oral bioavailability)", "setting": "Full PK study [1]; 20 mg/kg po vs iv, mice", "result": 97, "unit": "%"}, {"measurement": "AUC0-24 h", "setting": "Full PK study [1]; 20 mg/kg po, mice", "result": 3060, "unit": "µg·min/mL"}, {"measurement": "AUC0-∞", "setting": "Full PK study [1]; 20 mg/kg po, mice", "result": 4060, "unit": "µg·min/mL"}, {"measurement": "Cmax", "setting": "Full PK study [1]; 20 mg/kg po, mice", "result": 2340, "unit": "ng/mL"}, {"measurement": "Tmax", "setting": "Full PK study [1]; 20 mg/kg po, mice", "result": 6, "unit": "h"}, {"measurement": "t1/2dist", "setting": "Full PK study [1]; 20 mg/kg po, mice", "result": "t1/2dist = 15.9 h"}, {"measurement": "t1/2elim (terminal half-life)", "setting": "Full PK study [1]; 20 mg/kg po, mice", "result": 18.6, "unit": "h"}, {"measurement": "clearance, fold lower than 1", "setting": "Full PK study [1]; 75b vs compound 1", "result": 3, "unit": "fold"}, {"measurement": "volume of distribution, fold higher than 1", "setting": "Full PK study [1]; 75b vs compound 1", "result": 13, "unit": "fold"}]}
{"smiles": "Oc1ccc(-c2nc(-c3ccc(Oc4ccc(C(F)(F)F)cc4)cc3)no2)cc1", "note": "[Compound 1]", "values": [{"measurement": "t1/2abs", "setting": "Full PK study [2]", "result": 3.3, "unit": "h"}]}
